This experiment has as its target T1, α7 nicotinic acetylcholine receptor (α7nAChR) (Mus musculus, UniProt P49582).
T1 construct: gene Chrna7; native receptor in hippocampal CA1 pyramidal cells (brain slices)
Put plainly: whole cell patch-clamp of ACh-evoked inward current in mouse hippocampal slices, dose-response.

Structures are written as SMILES.

T1 sequence (P49582 23-502): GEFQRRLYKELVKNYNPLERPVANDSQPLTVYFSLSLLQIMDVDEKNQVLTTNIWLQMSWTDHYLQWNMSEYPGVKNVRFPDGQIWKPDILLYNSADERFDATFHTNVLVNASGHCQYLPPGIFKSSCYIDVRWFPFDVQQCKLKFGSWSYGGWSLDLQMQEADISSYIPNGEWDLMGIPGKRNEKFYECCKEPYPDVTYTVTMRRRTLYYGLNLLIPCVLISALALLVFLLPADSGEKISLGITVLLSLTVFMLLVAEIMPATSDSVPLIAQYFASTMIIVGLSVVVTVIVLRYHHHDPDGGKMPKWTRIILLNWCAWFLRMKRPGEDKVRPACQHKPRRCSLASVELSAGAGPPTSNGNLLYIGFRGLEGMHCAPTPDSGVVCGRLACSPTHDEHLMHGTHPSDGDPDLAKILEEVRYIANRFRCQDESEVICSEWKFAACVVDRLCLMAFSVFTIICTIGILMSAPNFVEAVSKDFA

As for `CC(=O)OCC[N+](C)(C)C` [acetylcholine], the response was half-maximal at 431 µM (EC50).

The values are drawn from publication PMC7801264, “Farnesyl Transferase Inhibitor Lonafarnib Enhances α7nAChR Expression Through Inhibiting DNA Methylation of CHRNA7 and Increases α7nAChR Membrane Trafficking” (Frontiers in Pharmacology, 2020).
